Assay results published in patent US9815839B2, “N-(1-(substituted-phenyl)ethyl)-9H-purin-6-amines as PI3K inhibitors” (Incyte Corporation, priority 2010, dated 2017).
pIC50: −log10 of the molar value. Structures can show the parent of a compound that is named as a salt.

Each compound was assayed against T1, PI3Kδ (p110δ/p85α) (Homo sapiens, UniProt O00329) (assay: PI3Kδ scintillation proximity assay). Settings: 20 μM ATP, 4 nM PI3Kδ.
T1 construct: purchased Millipore (Bedford, Mass.)
Format: biochemical
Summary of the method: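 p110δ/p85α (4 nM) phosphorylated 20 μM PIP2 with 20 μM ATP plus [γ-33P]ATP in 20 mM MOPS pH 6.7, 10 mM MgCl2, 5 mM DTT, 0.03% CHAPS, 0.5% DMSO, 210 min at room temperature. EDTA quench, WGA SPA bead capture, scintillation counting; IC50 from log-concentration fit.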

T1 sequence (O00329 whole entry, species assumed): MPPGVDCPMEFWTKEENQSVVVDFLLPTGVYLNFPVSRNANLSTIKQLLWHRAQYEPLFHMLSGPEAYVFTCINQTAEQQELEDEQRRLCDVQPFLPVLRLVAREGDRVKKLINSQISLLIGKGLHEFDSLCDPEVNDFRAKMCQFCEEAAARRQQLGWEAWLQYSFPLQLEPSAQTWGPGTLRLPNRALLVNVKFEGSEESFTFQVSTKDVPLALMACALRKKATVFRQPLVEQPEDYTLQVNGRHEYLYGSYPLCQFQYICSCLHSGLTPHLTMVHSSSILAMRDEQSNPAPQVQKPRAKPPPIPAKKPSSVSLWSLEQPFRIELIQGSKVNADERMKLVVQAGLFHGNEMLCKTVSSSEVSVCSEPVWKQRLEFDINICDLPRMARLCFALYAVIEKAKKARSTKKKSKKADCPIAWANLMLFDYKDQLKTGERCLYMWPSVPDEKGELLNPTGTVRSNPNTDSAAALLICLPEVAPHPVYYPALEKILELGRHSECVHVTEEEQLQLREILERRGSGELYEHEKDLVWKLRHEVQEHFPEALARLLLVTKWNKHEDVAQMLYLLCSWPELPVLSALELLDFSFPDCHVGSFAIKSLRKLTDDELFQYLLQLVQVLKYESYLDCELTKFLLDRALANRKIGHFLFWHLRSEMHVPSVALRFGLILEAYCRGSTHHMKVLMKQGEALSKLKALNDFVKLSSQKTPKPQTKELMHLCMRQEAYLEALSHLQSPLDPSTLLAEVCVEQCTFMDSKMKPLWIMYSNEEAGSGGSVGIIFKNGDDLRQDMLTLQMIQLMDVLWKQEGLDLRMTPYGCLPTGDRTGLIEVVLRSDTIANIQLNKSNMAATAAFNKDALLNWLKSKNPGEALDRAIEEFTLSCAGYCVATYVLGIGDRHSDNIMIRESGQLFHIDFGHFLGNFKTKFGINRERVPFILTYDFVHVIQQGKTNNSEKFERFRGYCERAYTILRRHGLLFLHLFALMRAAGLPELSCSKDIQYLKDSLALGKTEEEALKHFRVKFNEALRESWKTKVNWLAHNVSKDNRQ
T1 sequence (P27986 whole entry partner, species assumed): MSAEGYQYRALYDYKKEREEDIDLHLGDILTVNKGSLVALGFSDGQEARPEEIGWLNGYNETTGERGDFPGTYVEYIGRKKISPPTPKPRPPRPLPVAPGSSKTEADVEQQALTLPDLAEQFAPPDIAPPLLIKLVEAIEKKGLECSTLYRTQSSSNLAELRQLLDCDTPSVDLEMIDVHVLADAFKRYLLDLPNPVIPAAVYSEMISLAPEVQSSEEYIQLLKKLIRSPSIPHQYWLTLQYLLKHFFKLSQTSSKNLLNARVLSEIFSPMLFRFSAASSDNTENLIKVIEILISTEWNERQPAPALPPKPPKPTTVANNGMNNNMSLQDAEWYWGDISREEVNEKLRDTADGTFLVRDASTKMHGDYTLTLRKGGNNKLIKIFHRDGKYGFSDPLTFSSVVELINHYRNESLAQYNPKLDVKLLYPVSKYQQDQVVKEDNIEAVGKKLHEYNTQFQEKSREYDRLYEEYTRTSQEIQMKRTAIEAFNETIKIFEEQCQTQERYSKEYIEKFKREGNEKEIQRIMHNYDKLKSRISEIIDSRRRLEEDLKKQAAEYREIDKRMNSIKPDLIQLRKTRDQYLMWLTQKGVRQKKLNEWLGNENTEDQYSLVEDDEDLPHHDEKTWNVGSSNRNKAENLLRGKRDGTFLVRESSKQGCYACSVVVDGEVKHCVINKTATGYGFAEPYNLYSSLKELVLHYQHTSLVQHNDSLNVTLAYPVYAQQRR

Row | Compound | pIC50
1 | CCOc1c(C(C)Nc2ncnc3[nH]cnc23)cc(Cl)c(C#N)c1C1CN(CC)C1 (centres unmarked) [Example 213, 6-Chloro-3-ethoxy-2-(1-ethylazetidin-3-yl)-4-[1-(9H-purin-6-ylamino)ethyl]benzonitrile bis(trifluoroacetate)] | > 7.30
2 | COc1c(C(C)Nc2ncnc3[nH]cnc23)cc(Cl)c(C)c1-c1ccc(NC(C)=O)nc1 (centres unmarked) [Example 112, N-(5-{3-chloro-6-methoxy-2-methyl-5-[1-(9H-purin-6-ylamino)ethyl]phenyl}-pyridin-2-yl)acetamide] | > 7.30
3 | Cc1c(Cl)cc(C(C)Nc2ncnc3[nH]cnc23)c(OCCN2CCOCC2)c1-c1cnc(N)nc1 (centres unmarked) [Example 149, N-{1-[3-(2-amino-pyrimidin-5-yl)-5-chloro-4-methyl-2-(2-morpholin-4-ylethoxy)-phenyl]ethyl}-9H-purin-6-amine] | > 7.30
4 | COc1c(C(C)Nc2ncnc3[nH]cnc23)cc(Cl)c(C)c1-c1ccc(N)nc1 (centres unmarked) [Example 57, N-{1-[3-(6-aminopyridin-3-yl)-5-chloro-2-methoxy-4-methylphenyl]ethyl}-9H-purin-6-amine] | > 7.30
5 | COc1c(C(C)Nc2ncnc3[nH]cnc23)cc(Cl)c(C)c1-c1ccc(C(=O)N2CCCC2)c(F)c1 (centres unmarked) [Example 66, N-{1-[5-chloro-3′-fluoro-2-methoxy-6-methyl-4′-(pyrrolidin-1-ylcarbonyl)biphenyl-3-yl]ethyl}-9H-purin-6-amine] | > 7.30
6 | Cc1c(Cl)cc(C(C)Nc2ncnc3[nH]cnc23)c(OCCN2CCOCC2)c1-c1ccncc1 (centres unmarked) [Example 126, N-{1-[5-Chloro-4-methyl-2-(2-morpholin-4-ylethoxy)-3-pyridin-4-ylphenyl]ethyl}-9H-purin-6-amine] | > 7.30
7 | COc1c(C(C)Nc2ncnc3[nH]cnc23)cc(Cl)c(C)c1C1CN(C(C)C)C(=O)CO1 (centres unmarked) [Example 191, 6-{3-Chloro-6-methoxy-2-methyl-5-[1-(9H-purin-6-ylamino)ethyl]phenyl}-4-isopropylmorpholin-3-one trifluoroacetate] | > 7.30
8 | COc1c(C(C)Nc2ncnc3[nH]cnc23)cc(Cl)c(C)c1-c1ccc(C(C)(C)O)nc1 (centres unmarked) [Example 184, 2-(5-{3-chloro-6-methoxy-2-methyl-5-[1-(9H-purin-6-ylamino)ethyl]phenyl}pyridin-2-yl)propan-2-ol bis(2,2,2-trifluoroacetate)] | > 7.30
9 | COc1c(C(C)Nc2ncnc3[nH]cnc23)cc(Cl)c(C)c1-c1ccc(OC(C)C)nc1 (centres unmarked) [Example 59, N-{1-[5-chloro-3-(6-isopropoxypyridin-3-yl)-2-methoxy-4-methylphenyl]ethyl}-9H-purin-6-amine] | 6.60 to 7.00
10 | CC(Nc1ncnc2[nH]cnc12)c1cc(Cl)c(CC#N)c(C#N)c1-c1cccc(F)c1 (centres unmarked) [Example 4, 4-Chloro-3-(cyanomethyl)-3′-fluoro-6-[1-(9H-purin-6-ylamino)ethyl]biphenyl-2-carbonitrile] | 6.00 to 6.30
11 | COc1c(C(C)Nc2ncnc3[nH]cnc23)cc(Cl)c(C)c1-c1cncc(C)c1 (centres unmarked) [Example 55, N-{1-[5-chloro-2-methoxy-4-methyl-3-(5-methylpyridin-3-yl)phenyl]ethyl}-9H-purin-6-amine] | > 7.30
12 | CCOc1cccc(-c2c(C)c(F)cc(C(C)Nc3ncnc4[nH]cnc34)c2OC)c1 (centres unmarked) [Example 119, N-[1-(3′-ethoxy-5-fluoro-2-methoxy-6-methylbiphenyl-3-yl)ethyl]-9H-purin-6-amine] | 6.60 to 7.00
13 | COc1c(-c2ccnc(F)c2)cc(Cl)cc1C(C)Nc1ncnc2[nH]cnc12 (centres unmarked) [Example 145, N-{1-[5-chloro-3-(2-fluoropyridin-4-yl)-2-methoxyphenyl]ethyl}-9H-purin-6-amine] | > 7.30
14 | COc1cncc(-c2c(C)c(Cl)cc(C(C)Nc3ncnc4[nH]cnc34)c2OCCN2CCOCC2)c1 (centres unmarked) [Example 157, N-{1-[5-chloro-3-(5-methoxy-pyridin-3-yl)-4-methyl-2-(2-mor-pholin-4-ylethoxy)-phenyl]-ethyl}-9H-purin-6-amine] | > 7.30
15 | COc1c(C(C)Nc2ncnc3[nH]cnc23)cc(F)c(C)c1-c1cnn(C)c1 (centres unmarked) [Example 121, N-{1-[5-fluoro-2-methoxy-4-methyl-3-(1-methyl-1H-pyrazol-4-yl)phenyl]ethyl}-9H-purin-6-amine] | > 7.30
16 | Cc1c(Cl)cc(C(C)Nc2ncnc3[nH]cnc23)c(OCCN2CCOCC2)c1-c1ccc(S(C)(=O)=O)cc1 (centres unmarked) [Example 128, N-{1-[5-Chloro-6-methyl-4′-(methylsulfonyl)-2-(2-morpholin-4-ylethoxy)biphenyl-3-yl]ethyl}-9H-purin-6-amine] | > 7.30
17 | Cc1c(Cl)cc(C(C)Nc2ncnc3[nH]cnc23)c(OCCN2CCOCC2)c1-c1cncc(S(C)(=O)=O)c1 (centres unmarked) [Example 156, N-{1-[5-chloro-4-methyl-3-[5-(methyl-sulfonyl)-pyridin-3-yl]-2-(2-morpholin-4-ylethoxy)-phenyl]-ethyl}-9H-purin-6-amine] | > 7.30
18 | COc1c(C(C)Nc2ncnc3[nH]cnc23)cc(Cl)c(C)c1-c1ccc(C(=O)N2CC(C#N)C2)c(F)c1 (centres unmarked) [Example 63, 1-({3′-Chloro-3-fluoro-6′-methoxy-2′-methyl-5′-[1-(9H-purin-6-ylamino)ethyl]biphenyl-4-yl}carbonyl)azetidine-3-carbonitrile] | > 7.30
19 | COc1ccc(-c2c(C)c(Cl)cc(C(C)Nc3ncnc4[nH]cnc34)c2OC)cc1C (centres unmarked) [Example 102, N-[1-(5-chloro-2,4′-dimethoxy-3′,6-dimethylbiphenyl-3-yl)ethyl]-9H-purin-6-amine] | 6.60 to 7.00
20 | COc1c(C(C)Nc2ncnc3[nH]cnc23)cc(Cl)c(F)c1C1CN(C(C)C)C1 (centres unmarked) [Example 172, N-{1-[5-Chloro-4-fluoro-3-(1-isopropylazetidin-3-yl)-2-methoxyphenyl]ethyl}-9H-purin-6-amine bis(trifluoroacetate)] | > 7.30
21 | COc1c(C(C)Nc2ncnc3[nH]cnc23)cc(Cl)c(C)c1-c1cscn1 (centres unmarked) [Example 164, N-{1-[5-Chloro-2-methoxy-4-methyl-3-(1,3-thiazol-4-yl)phenyl]ethyl}-9H-purin-6-amine trifluoroacetate] | > 7.30
22 | CC(Nc1ncnc2[nH]cnc12)c1cc(Cl)cc(-c2ccc(S(C)(=O)=O)cc2)c1-c1cc(F)cc(F)c1 (centres unmarked) [Example 134, N-{1-[5′-chloro-3″,5″-difluoro-4-(methyl-sulfonyl)-1,1′:2′,1″-terphenyl-3′-yl]ethyl}-9H-purin-6-amine] | > 7.30
23 | COc1c(C(C)Nc2ncnc3[nH]cnc23)cc(Cl)c(C)c1C1CN(C(C)C)C(=O)O1 (centres unmarked) [Example 189, 5-{3-Chloro-6-methoxy-2-methyl-5-[1-(9H-purin-6-ylamino)ethyl]phenyl}-3-isopropyl-1,3-oxazolidin-2-one trifluoroacetate] | > 7.30
24 | COc1c(-c2cc(F)nc(F)c2)cc(Cl)cc1C(C)Nc1ncnc2[nH]cnc12 (centres unmarked) [Example 141, N-{1-[5-chloro-3-(2,6-difluoropyridin-4-yl)-2-methoxyphenyl]ethyl}-9H-purin-6-amine] | 6.30 to 6.60
25 | CNC(=O)c1cc(-c2c(C)c(Cl)cc(C(C)Nc3ncnc4[nH]cnc34)c2OC)cn1C (centres unmarked) [Example 175, 4-{3-Chloro-6-methoxy-2-methyl-5-[1-(9H-purin-6-ylamino)ethyl]phenyl}-N,1-dimethyl-1H-pyrrole-2-carboxamide] | > 7.30

Each compound was assayed on Pfeiffer cell line (diffuse large B cell lymphoma) (assay: Pfeiffer cell proliferation assay). Settings: Homo sapiens, Pfeiffer, Pfeiffer cells, 3-4 days plus 12 hours [3H]-thymidine incorporation.
Format: cell-based
Experimental: Example C: Pfeiffer Cell Proliferation Assay
Pfeiffer cell line (diffuse large B cell lymphoma) was purchased from ATCC (Manassas, Va.) and maintained in the culture medium recommended (RPMI and 10% FBS). To measure the anti-proliferation activity of the compounds, the Pfeiffer cells were plated with the culture medium (2×10^3 cells/well/per 200 μl) into 96-well ultra-low binding plates (Corning, Corning, N.Y.), in the presence or absence of a concentration range of test compounds. After 3-4 days, [^3H]-thymidine (1 μCi/well) (PerkinElmer, Boston, Mass.) in PBS was then added to the cell culture for an additional 12 hours before the incorporated radioactivity was separated by filtration with water through GF/B filters (Packard Bioscience, Meridenj, Conn.) and measured by liquid scintillation counting with a TopCount (Packard Bioscience).

Row | Compound | pIC50
26 | CCOc1c(C(C)Nc2ncnc3[nH]cnc23)cc(Cl)c(C#N)c1C1CN(CC)C1 (centres unmarked) [Example 213, 6-Chloro-3-ethoxy-2-(1-ethylazetidin-3-yl)-4-[1-(9H-purin-6-ylamino)ethyl]benzonitrile bis(trifluoroacetate)] | > 7.00
27 | COc1c(C(C)Nc2ncnc3[nH]cnc23)cc(Cl)c(C)c1-c1ccc(NC(C)=O)nc1 (centres unmarked) [Example 112, N-(5-{3-chloro-6-methoxy-2-methyl-5-[1-(9H-purin-6-ylamino)ethyl]phenyl}-pyridin-2-yl)acetamide] | > 7.00
28 | COc1c(C(C)Nc2ncnc3[nH]cnc23)cc(Cl)c(C)c1-c1ccc(S(C)(=O)=O)cc1 (centres unmarked) [Example 32, N-{1-[5-chloro-2-methoxy-6-methyl-4′-(methylsulfonyl)biphenyl-3-yl]ethyl}-9H-purin-6-amine] | > 7.00
29 | Cc1c(Cl)cc(C(C)Nc2ncnc3[nH]cnc23)c(-c2cccc(F)c2)c1C#N (centres unmarked) [Example 1, 4-Chloro-3′-fluoro-3-methyl-6-[1-(9H-purin-6-ylamino)ethyl]biphenyl-2-carbonitrile] | 6.00 to 6.30
30 | COc1c(C(C)Nc2ncnc3[nH]cnc23)cc(Cl)c(C)c1-c1cc(F)ccc1F (centres unmarked) [Example 50, N-[1-(5-chloro-2′,5′-difluoro-2-methoxy-6-methylbiphenyl-3-yl)ethyl]-9H-purin-6-amine] | < 6.00
31 | Cc1c(Cl)cc(C(C)Nc2ncnc3[nH]cnc23)c(-c2cccc(F)c2)c1-c1cnn(C)c1 (centres unmarked) [Example 73, N-{1-[4-chloro-3′-fluoro-5-methyl-6-(1-methyl-1H-pyrazol-4-yl)biphenyl-2-yl]ethyl}-9H-purin-6-amine] | > 7.00
32 | COc1c(C(C)Nc2ncnc3[nH]cnc23)cc(Cl)c(C)c1-c1cc(C(F)(F)F)ccc1F (centres unmarked) [Example 86, N-{1-[5-chloro-2′-fluoro-2-methoxy-6-methyl-5′-(trifluoromethyl)biphenyl-3-yl]ethyl]-9H-purin-6-ami] | < 6.00
33 | COc1c(C(C)Nc2ncnc3[nH]cnc23)cc(Cl)c(C)c1-c1cncc(C#N)c1 (centres unmarked) [Example 53, 5-{3-chloro-6-methoxy-2-methyl-5-[1-(9H-purin-6-ylamino)ethyl]phenyl}nicotinonitrile] | > 7.00
34 | COc1c(C(C)Nc2ncnc3[nH]cnc23)cc(Cl)c(C)c1-c1cnc(N)nc1 (centres unmarked) [Example 33, N-{1-[3-(2-aminopyrimidin-5-yl)-5-chloro-2-methoxy-4-methylphenyl]ethyl}-9H-purin-6-amine] | > 7.00

Same assay, conditions: Pfeiffer cells, 3-4 days plus 12 hours [3H]-thymidine incorporation

Row | Compound | pIC50
35 | COc1c(C(C)Nc2ncnc3[nH]cnc23)cc(Cl)c(C)c1-c1cc(F)ccc1F (centres unmarked) [Example 50, N-[1-(5-chloro-2′,5′-difluoro-2-methoxy-6-methylbiphenyl-3-yl)ethyl]-9H-purin-6-amine] | 6.00 to 6.30
